{"source": "patent US8420653B2", "about": "“Pyrimidine compounds and their uses” (Orchid Chemicals & Pharmaceuticals Limited, priority 2008, dated 2013)", "key": {"[1]": {"system": "purified recombinant COX-1", "assay": "COX-1 enzyme based assay", "assay_type": "biochemical", "protocol": "COX-1 and COX-2 enzyme based assays were carried out to check the inhibitory potential of the test compounds on the production of prostaglandin by purified recombinant COX-1/COX-2 enzyme (Proc. Nat. Acad. Sci. USA, 88, 2692-2696, 1991; J. Clin. Immunoassay 15, 116-120, 1992). In this assay, the potential of the test compound to inhibit the production of prostaglandin either by COX-1 or COX-2 from arachidonic acid (substrate) was measured. This was an enzyme based in-vitro assay to evaluate selective COX inhibition with good reproducibility.\nArachidonic acid was converted to PGH2 (Intermediate product) by COX1/COX-2 in the presence or absence of the test compound. The reaction was carried out at 37° C. and after 2 minutes it was stopped by adding 1M HCl. Intermediate product PGH2 was converted to a stable prostanoid product PGF2α by SnCl2 reduction. The amount of PGF2α produced in the reaction was inversely proportional to the COX inhibitory potential of the test compound. The prostanoid product was quantified via enzyme immunoassay (EIA) using a broadly specific antibody that binds to all the major forms of prostaglandin, using Cayman ELISA kit as per the procedure outlined by the manufacturer (Cayman Chemicals, Ann Arbor, USA)."}, "ulcer formation": {"system": "ulcer formation", "assay": "Ulcerogenic potential", "assay_type": "in vivo, male wistar", "conditions": "oral, 4 hours after administration", "protocol": "Ulcerogenic Potential In order to evaluate the compound's role on the ulcer formation, the animals were sacrificed and the stomach was taken out and flushed with 1% formalin. Animals (male wistar 200 g) were fasted for 18 hours with free access to water and the test compounds were suspended in 0.5% Tween 80 and 0.25% CMC (carboxymethylcellulose) solution to make a uniform suspension. After 4 hours of oral administration of test compounds, all the animals were sacrificed by cervical dislocation. The stomach was dissected carefully and filled up with a sterile saline solution and embedded in 6% formalin solution. […] The test compound treated groups were compared with the vehicle treated groups. […]"}, "PDE4": {"system": "T1, PDE4", "T1 construct": "other: 10 μM, source human U937 cells; PDE4 at 10 μm", "assay": "PDE4 activity (source human U937 cells)", "assay_type": "biochemical", "conditions": "10 μM, source human U937 cells", "protocol": "PDE4 inhibition was measured by following a literature assay procedure (Cortizo J et al., Br J. Pharmacol., 1993, 108: 562-568. The assay method involves the following conditions.\nSubstrate: 1.01 μM [^3H] camp+camp\nPre-Incubation Time/Temperature: 15 minutes at 25° C.\nIncubation Time/Temperature. 20 minutes at 25° C.\nIncubation buffer: 50 mM Tris-HCl, pH 7.5, 5 mM MgCl2\nQuantitation method: Quantitation of [^3H] Adenosine\nSignificance criteria: ≧50% of max stimulation or inhibition"}}, "data": [{"smiles": "CNS(=O)(=O)c1ccc(-c2c(N)nc(C(F)(F)F)nc2-c2ccc(S(C)(=O)=O)cc2)cc1", "note": "[Example 2, 4-{4-Amino-6-[4-(methylsulfonyl)phenyl]-2-(trifluoromethyl)pyrimidin-5-yl}-N-methylbenzenesulfonamide]", "values": [{"measurement": "% Inhibition in rEnzyme Assay COX-1", "setting": "[1]; 1 μM", "value": 33.84, "unit": "%"}, {"measurement": "% Inhibition in rEnzyme Assay COX-1", "setting": "[1]; 10 μM", "value": 50.41, "unit": "%"}]}, {"smiles": "CS(=O)(=O)c1ccc(-c2nc(C(F)(F)F)nc(Cl)c2-c2ccc(S(=O)(=O)Cl)cc2)cc1", "note": "[Example 3, 4-{4-chloro-6-[4-(methylsulfonyl)phenyl]-2-(trifluoromethyl)pyrimidin-5-yl}benzenesulfonyl chloride]", "values": [{"measurement": "melting point", "value": "207 to 210", "unit": "°C"}]}, {"smiles": "CNS(=O)(=O)c1ccc(-c2c(Cl)nc(C(F)(F)F)nc2-c2ccc(S(C)(=O)=O)cc2)cc1", "note": "[Example 4, 4-{4-chloro-6-[4-(methylsulfonyl)phenyl]-2-(trifluoromethyl)pyrimidin-5-yl}-N-methylbenzenesulfonamide]", "values": [{"measurement": "Ulcer incidence at 5 mg/kg", "setting": "ulcer formation", "value": "Nil"}, {"measurement": "melting point", "value": "226 to 230", "unit": "°C"}]}, {"smiles": "CNc1nc(C(F)(F)F)nc(-c2ccc(S(C)(=O)=O)cc2)c1-c1ccc(S(=O)(=O)NC)cc1", "note": "[Example 5, 4-{4-(Methylamino)-6-[4-(methylsulfonyl)phenyl]-2-(trifluoromethyl)pyrimidin-5-yl}-N-methylbenzenesulfonamide]", "values": [{"measurement": "Ulcer incidence at 5 mg/kg", "setting": "ulcer formation", "value": "Nil"}]}, {"smiles": "CS(=O)(=O)c1ccc(-c2nc(C(F)(F)F)nc(NN)c2-c2ccc(S(=O)(=O)NN)cc2)cc1", "note": "[Example 7, 4-{4-hydrazino-6-[4-(methylsulfonyl)phenyl]-2-(trifluoromethyl)pyrimidin-5-yl}benzenesulfonohydrazide]", "values": [{"measurement": "melting point", "value": "203 to 206", "unit": "°C"}]}, {"smiles": "O=C(NNc1nc(C(F)(F)F)nc(-c2ccncc2)c1-c1ccc(F)cc1)C(F)(F)F", "note": "[Example 14, 2,2,2-trifluoro-N′-[5-(4-fluorophenyl)-6-pyridin-4-yl-2-(trifluoromethyl)pyrimidin-4-yl]acetohydrazide]", "values": [{"measurement": "melting point", "value": "240 to 242", "unit": "°C"}]}, {"smiles": "CC(=O)NS(=O)(=O)c1ccc(-c2c(Cl)nc(C(F)(F)F)nc2-c2ccc(S(C)(=O)=O)cc2)cc1", "note": "[Example 17, N-[(4-{4-chloro-6-[4-(methylsulfonyl)phenyl]-2-(trifluoromethyl)pyrimidin-5-yl}phenyl)sulfonyl]acetamide]", "values": [{"measurement": "melting point", "value": "230 to 235", "unit": "°C"}]}, {"smiles": "CS(=O)(=O)c1ccc(-c2nc(C(F)(F)F)nc(OS(=O)(=O)c3cccc4ccccc34)c2-c2ccccc2)cc1", "note": "[Example 18, 6-[4-(methylsulfonyl)phenyl]-5-phenyl-2-(trifluoromethyl)pyrimidin-4-yl napthalenesulfonate]", "values": [{"measurement": "melting point", "value": "204 to 206", "unit": "°C"}]}, {"smiles": "CS(=O)(=O)c1ccc(-c2nc(C(F)(F)F)nc(N3CCN(Cc4ccncc4)CC3)c2-c2ccccc2)cc1", "note": "[Example 46, 4-[4-(Methylsulfonyl)phenyl]-5-phenyl-6-[4-(pyridin-4-ylmethyl)piperazin-1-yl]-2-(trifluoromethyl)pyrimidine]", "values": [{"measurement": "melting point", "value": "228 to 232", "unit": "°C"}]}, {"smiles": "CS(=O)(=O)c1ccc(-c2nc(C(F)(F)F)nc(N3CCN(Cc4ccc([N+](=O)[O-])s4)CC3)c2-c2ccccc2)cc1", "note": "[Example 47, 6-[4-(Methylsulfonyl)phenyl]-4-{4-[(5-nitro-2-thienyl)methyl]piperazin-1-yl}-5-phenyl-2-(trifluoromethyl)pyrimidine]", "values": [{"measurement": "melting point", "value": "168 to 174", "unit": "°C"}]}, {"smiles": "FC(F)(F)c1nc(-c2ccccc2)c(-c2ccccc2)c(N2CCN(c3ccccn3)CC2)n1", "note": "[Example 48, 4,5-diphenyl-6-(4-pyridin-2-yl-piperazin-1-yl)-2-(trifluoromethyl)pyrimidine]", "values": [{"measurement": "melting point", "value": "165 to 167", "unit": "°C"}]}, {"smiles": "CS(=O)(=O)c1ccc(-c2nc(C(F)(F)F)nc(N3CCN(c4ccccn4)CC3)c2-c2ccccc2)cc1", "note": "[Example 49, 4-[4-(Methylsulfonyl)phenyl]-5-phenyl-6-(4-pyridin-2-yl-piperazin-1-yl)-2-(trifluoromethyl)pyrimidine]", "values": [{"measurement": "melting point", "value": "229 to 233", "unit": "°C"}]}, {"smiles": "NS(=O)(=O)c1cccc(-c2c(-c3ccccc3)nc(C(F)(F)F)nc2N2CCNCC2)c1", "note": "[Example 51, 3-[4-Phenyl-6-piperazin-1-yl-2-(trifluoromethyl)pyrimidin-5-yl]benzenesulfonamide]", "values": [{"measurement": "% Inhibition in rEnzyme Assay COX-1", "setting": "[1]; 1 μM", "value": 8.27, "unit": "%"}, {"measurement": "% Inhibition in rEnzyme Assay COX-1", "setting": "[1]; 10 μM", "value": 7.1, "unit": "%"}]}, {"smiles": "NS(=O)(=O)c1cccc(-c2c(-c3ccc(F)cc3)nc(C(F)(F)F)nc2N2CCN(c3ccccn3)CC2)c1", "note": "[Example 53, 3-[4-(4-Fluorophenyl)-6-(4-pyridin-2-ylpiperazin-1-yl)-2-(trifluoromethyl)pyrimidin-5-yl]benzenesulfonamide]", "values": [{"measurement": "% Inhibition in rEnzyme Assay COX-1", "setting": "[1]; 1 μM", "value": 46.29, "unit": "%"}, {"measurement": "% Inhibition in rEnzyme Assay COX-1", "setting": "[1]; 10 μM", "value": 56.85, "unit": "%"}]}, {"smiles": "NS(=O)(=O)c1cccc(-c2c(-c3ccc(F)cc3)nc(C(F)(F)F)nc2N2CCN(c3ncccn3)CC2)c1", "note": "[Example 54, 3-[4-(4-Fluorophenyl)-6-(4-pyrimidin-2-ylpiperazin-1-yl)-2-(trifluoromethyl)pyrimidin-5-yl]benzenesulfonamide]", "values": [{"measurement": "% Inhibition in rEnzyme Assay COX-1", "setting": "[1]; 1 μM", "value": 34.42, "unit": "%"}, {"measurement": "% Inhibition in rEnzyme Assay COX-1", "setting": "[1]; 10 μM", "value": 45.53, "unit": "%"}]}, {"smiles": "NS(=O)(=O)c1cccc(-c2c(-c3ccccc3)nc(C(F)(F)F)nc2N2CCN(c3ncccn3)CC2)c1", "note": "[Example 57]", "values": [{"measurement": "% Inhibition in rEnzyme Assay COX-1", "setting": "[1]; 10 μM", "value": 5.7, "unit": "%"}]}, {"smiles": "NS(=O)(=O)c1cccc(-c2c(-c3ccccc3)nc(C(F)(F)F)nc2N2CCN(c3ccccn3)CC2)c1", "note": "[Example 58]", "values": [{"measurement": "% Inhibition in rEnzyme Assay COX-1", "setting": "[1]; 1 μM", "value": 10.22, "unit": "%"}, {"measurement": "% Inhibition in rEnzyme Assay COX-1", "setting": "[1]; 10 μM", "value": 9.59, "unit": "%"}]}, {"smiles": "NS(=O)(=O)c1cccc(-c2c(-c3ccc(F)cc3)nc(C(F)(F)F)nc2N2CCN(S(=O)(=O)C(F)(F)F)CC2)c1", "note": "[Example 77, 5-(3-Aminosulfonylphenyl)-4-(4-fluorophenyl)-2-(trifluoromethyl)-6-{4-[(trifluoromethyl)sulfonyl]piperazin-1-yl}pyrimidine]", "values": [{"measurement": "PDE4 inhibition at 10 μM (%)", "setting": "PDE4", "value": 94, "unit": "%"}]}, {"smiles": "N#CCCN1CCN(c2nc(C(F)(F)F)nc(-c3ccc(F)cc3)c2-c2cccc(S(N)(=O)=O)c2)CC1", "note": "[Example 100, 3-{4-[4-(2-cyanoethyl)piperazin-1-yl]-6-(4-fluorophenyl)-2-(trifluoromethyl)pyrimidin-5-yl}benzenesulfonamide]", "values": [{"measurement": "PDE4 inhibition at 10 μM (%)", "setting": "PDE4", "value": 92, "unit": "%"}]}, {"smiles": "NS(=O)(=O)c1cccc(-c2c(-c3ccc(F)cc3)nc(C(F)(F)F)nc2N2CCN(C(=O)C(F)(F)F)CC2)c1", "note": "[Example 109, 3-{6-(4-Fluorophenyl)-4-[4-(trifluoroacetyl)piperazin-1-yl]-2-(trifluoromethyl)pyrimidin-5-yl}benzenesulfonamide]", "values": [{"measurement": "PDE4 inhibition at 10 μM (%)", "setting": "PDE4", "value": 90, "unit": "%"}]}, {"smiles": "NS(=O)(=O)c1cccc(-c2c(-c3ccccc3)nc(C(F)(F)F)nc2N2CCN(c3ccc(C(F)(F)F)cn3)CC2)c1", "note": "[Example 116, 3-[6-{4-[5-(trifluoromethyl)pyridin-2-yl]piperazin-1-yl}-4-phenyl-2-(trifluoromethyl)pyrimidin-4-yl]benzenesulfonamide]", "values": [{"measurement": "% Inhibition in rEnzyme Assay COX-1", "setting": "[1]; 1 μM", "value": 6.29, "unit": "%"}, {"measurement": "% Inhibition in rEnzyme Assay COX-1", "setting": "[1]; 10 μM", "value": 19.24, "unit": "%"}]}, {"smiles": "NS(=O)(=O)c1cccc(-c2nc(C(F)(F)F)nc(-n3ccnc3)c2-c2ccccc2)c1", "note": "[Example 167, 3-[4-(1H-imidazol-1-yl)-5-phenyl-2-(trifluoromethyl)pyrimidin-6-yl]benzenesulfonamide]", "values": [{"measurement": "PDE4 inhibition at 10 μM (%)", "setting": "PDE4", "value": 82, "unit": "%"}]}, {"smiles": "NS(=O)(=O)c1cccc(-c2c(-c3ccccc3)nc(C(F)(F)F)nc2N2CCN(C(=O)C(F)(F)F)CC2)c1", "note": "[Example 173, 3-{6-Phenyl-4-[4-(trifluoroacetyl)piperazin-1-yl]-2-(trifluoromethyl)pyrimidin-5-yl}benzenesulfonamide]", "values": [{"measurement": "PDE4 inhibition at 10 μM (%)", "setting": "PDE4", "value": 87, "unit": "%"}]}, {"smiles": "Fc1ccc(-c2nc(C(F)(F)F)nc(NC3CC3)c2-c2ccccc2)cc1", "note": "[Example 175, N-Cyclopropyl-6-(4-fluorophenyl)-5-phenyl-2-(trifluoromethyl)pyrimidin-4-amine]", "values": [{"measurement": "PDE4 inhibition at 10 μM (%)", "setting": "PDE4", "value": 88, "unit": "%"}]}, {"smiles": "NS(=O)(=O)c1cccc(-c2c(-c3ccccc3)nc(C(F)(F)F)nc2N2CCC(=O)CC2)c1", "note": "[Example 179, 3-[6-Phenyl-4-(4-oxopiperidin-1-yl)-2-(trifluoromethyl)pyrimidin-5-yl]benzenesulfonamide]", "values": [{"measurement": "PDE4 inhibition at 10 μM (%)", "setting": "PDE4", "value": 84, "unit": "%"}]}]}
